Laboratory results reported in patent US20160377571A1, “BIOSENSOR” (University of Leeds, priority 2007, published 2016).

Tests used:
[1] = AC voltammetry (capacitance-potential scans) of DOPC monolayer on hanging mercury drop electrode (HMDE) with analyte in electrolyte
Experimental: The HMDE was based on using a capillary with a diameter of 0.1 mm so as to provide a surface area for the mercury drop about the same as the surface area of the mercury in the electrode in accordance with the invention.
Experiments were performed in 0.1M Kcl.

[2] = for response of the electrode of the invention to the test compound (depression of capacitance peaks): 0.5 μmol dm^−3 in 0.1M KCl
Experimental: The HMDE and the electrode of the invention were compared side-by-side in a static cell configuration. All experiments were carried out in 0.1 M potassium chloride solution. Measurements were taken at 75 Hz between −0.4 to −1.15 V with 4.95 mV rms at a scan rate of 5 mV
This Example compares a HMDE electrode with an electrode as produced in accordance with Example 3, both coated with a monolayer film of 1,2-dioleoyl-sn-glycero-3-phosphocholine (DOPC), new layers of which were deposited between consecutive scans. Experiments were performed in 0.1M Kcl. A negative going ‘forward’ potential scan was performed between −0.4 V and −1.15 V, and then followed immediately by a positive going ‘reverse’ scan from −1.15 V to −0.4 V with 4.95 mV rms at a scan rate of 5 mVs^−1.

[3] = Pt/Hg electrode, DOPC monolayer, compared with HMDE

Row | Structure (SMILES) | response of the HMDE to the test compound ([1]; 5 μmol dm^−3) | response of the electrode of the invention to the test compound (depression of capacitance peaks) [2, 3] | response of the electrode of the invention to the test compound ([2]; 5 μmol dm^−3, Pt/Hg electrode, DOPC monolayer, compared with HMDE) | sensitivity converted to ppb ([2]; assuming a density for the solution of 1 g per ml) | response of the HMDE to the test compound ([1]; 0.5 μmol dm^−3 in 0.1M KCl)
1 | NC(=O)c1cc[n+](COC[n+]2ccccc2C=NO)cc1 [H16] | large response | far greater response | slightly larger response |  | 
2 | CN(C)CCCN1c2ccccc2Sc2ccc(Cl)cc21 [chlorpromazine] |  |  |  | approximately 18 ppb | 
3 | CC(CN1c2ccccc2Sc2ccccc21)N(C)C (stereo not drawn) [promethazine] |  | stronger response (greater depression of the peaks) |  |  | show response
